Measured values published in patent US20210115000A1, “NILE RED DERIVATIVES FOR IMPROVED RATIOMETRIC IMAGING FOR NERVE SPECIFIC CONTRAST” (Oregon Health & Sciences University, priority 2018, published 2021).

Tests used:
[1] = Spectroscopic analysis: absorbance, emission and quantum yield of Nile Red derivatives; assay type: physicochemical; conditions: in DMSO; for QY (quantum yield): standard Rhodamine B
Method: Tandem liquid chromatography mass spectroscopy (LCMS) analysis (Agilent 1260 LC system with a 6224 time of flight (TOF) MS, Agilent, Santa Clara, Calif.) was performed using a 2.7 micron C18 column (4.6×50 mm, Agilent). High performance liquid chromatography (HPLC) purification (Agilent 1260 system with a preparative pump) was performed using a 5 micron C18 column (21.2×150 mm, Agilent). For both HPLC and LCMS, the mobile phase consisted of HPLC grade acetonitrile and water, treated with 0.1% formic acid. Spectroscopic analysis was performed on a Spectramax M5 spectrometer (Molecular Devices, Sunnyvale, Calif.) using a quartz cuvette with a 1 cm pathlength. Quantum yield was calculated according to equation (1).
Where Ø is the quantum yield, F is the integrated fluorescence intensity, f is the absorbance at the excitation wavelength and n is the refractive index of the solvent. S refers to the quantum yield standard (Rhodamine B)^25 and X refers to the unknown sample.

[2] = system: U2OS human osteosarcoma cell line; assay: Nile Red derivative cell staining and imaging, fixed and live cells; assay type: cell-based; conditions: 1 μM; for fluorescence intensity in fixed cells: U2OS fixed with 4% PFA, imaged without washing; for fluorescence intensity in live cells without washing / structures observed in live cells without washing: U2OS live, imaged in staining solution
Method: The U2OS human osteosarcoma cell line was cultured in Dulbecco's Modified Eagle Medium (DMEM, Thermo Fisher Scientific, Waltham, Mass.) with 10% fetal bovine serum (FBS, VWR, Radnor, Pa.) and 1% Penicillin/Steptomycin 100× (Thermo Fisher Scientific) at 37° C. in 5% CO2. For live cell imaging studies, Fluorobrite DMEM media (Thermo Fisher Scientific) was used in place of DMEM. For imaging studies, cells were grown in 96-well glass bottom plates (Cellvis, Mountain View, Calif.) for 48 hours, with a final confluence of <80%. Nile Red and its derivatives were prepared at 1-10 mM stock concentration in DMSO and diluted into media or buffer for cell staining and imaging studies.
Cell staining studies were completed on fixed and live U2OS cells using Nile Red and each synthesized Nile Red derivative described as follows. For fixed cell staining, cells were washed once with 1× phosphate buffered saline (PBS), then fixed with 4% paraformaldehyde (PFA) for 20 minutes at room temperature. The PFA was removed and each well was washed three times for 5 mins per wash (3×5 mins) with 1×PBS. The Nile Red fluorophores were diluted into 1×PBS to a final concentration of 1 μM, incubated for 5 minutes with the cells, and images were collected without washing. Live cell staining was completed using two methods. First, cells were washed once with Fluorobrite DMEM. The Nile Red fluorophore solution was prepared in Fluorobrite DMEM by diluting to a final concentration of 1 μM for staining, where cells were stained for 5 minutes. The fluorophore containing media was removed and the cells were fixed for 20 minutes using 4% PFA. Cells were then washed 3×5 mins with Fluorobrite DMEM prior to imaging. Second, cells were washed with Fluorobrite DMEM without FBS once for 5 minutes. Nile Red fluorophore solutions were prepared in Fluorobrite without FBS at 1 μM final concentration for cell staining. The cells were stained with the prepared solution for 5 minutes and imaged in the staining solution. All images were collected at their ideal exposure times to permit visualization of stained intracellular structures.
All ex vivo and cellular fluorescence and white light images were collected using a Zeiss AxioObserver inverted fluorescence microscope (Carl Zeiss, Oberkochen, Germany). All cell images were collected at 40× magnification and all tissue section images were collected at 10× magnification. Fluorescence excitation was completed using a Photofluor II broad band light source (89 North, Burlington, Vt.) filtered with a 545±12.5 nm bandpass excitation filter. Fluorescence images were collected using a 605±35 nm bandpass emission filter and a AxioCam 506 monochromo camera (Zeiss). All Filters were Purchased from Chroma Technologies (Bellows Falls, Vt.).

[3] = system: sciatic nerve or brachial plexus nerve sites (adipose, nerve, muscle tissue); assay: In vivo imaging following direct/topical administration on rodent nerve sites; set-up: species or system male CD-1 mice; conditions: immediately following direct administration
From the text: In vivo images were acquired using a previously published, custom-built small animal fluorescence imaging system, described briefly here.^27 Fluorescent images were obtained using a Qimaging EXi Blue monochrome camera (Surrey, British Columbia, CA) with a removable Bayer mask for collection of co-registered color and fluorescence images. A Photofluor II broad band light source (89 North) was expanded onto the surgical field through a liquid light guide and used unfiltered for white light illumination. Nile Red and NR5 were excitated using a 545 t 12.5 nm bandpass filter, while fluorescence emission images were collected with a 605±35 nm bandpass filter. Oxazine 4 (Exciton, West Chester, Ohio) was used for nerve and adipose co-staining and ratiometic imaging studies. Oxazine 4 was excited using a 620±30 nm bandpass filter, while fluorescence emission images were collected through a 700±37.5 nm bandpass filter. Approval for the use of animals in the study was obtained from the Institutional Animal Care and Use Committee (IACUC) at Oregon Health and Science University (OHSU). In vivo staining studies were carried out on male CD-1 mice using an optimized direct/topical administration protocol.^2 Staining was performed concurrently on no more than two nerve sites (sciatic nerve or brachial plexus) per mouse. Nile Red and all Nile Red derivatives were formulated in a previously published co-solvent formulation (10% DMSO, 5% Kolliphor, 63.75% serum and 21.25% PBS^14) at a final concentration of 100 μM. Each formulated fluorophore was incubated for 5 minutes on the nerve site (n=4 nerve sites/fluorophore), followed by 9 short flushes with PBS. The nerve site was then incubated with blank co-solvent not containing fluorophore for 5 minutes, followed again by 9 short flushes with PBS.

[4] = system: nerve, adipose and muscle tissue at nerve sites; assay: In vivo co-staining with Oxazine 4, ratiometric imaging and ROC curve analysis; set-up: species or system male CD-1 mice; conditions: 30 min after staining compared to immediately following staining
From the text: In vivo images were acquired using a previously published, custom-built small animal fluorescence imaging system, described briefly here.^27 Fluorescent images were obtained using a Qimaging EXi Blue monochrome camera (Surrey, British Columbia, CA) with a removable Bayer mask for collection of co-registered color and fluorescence images. A Photofluor II broad band light source (89 North) was expanded onto the surgical field through a liquid light guide and used unfiltered for white light illumination. Nile Red and NR5 were excitated using a 545 t 12.5 nm bandpass filter, while fluorescence emission images were collected with a 605±35 nm bandpass filter. Oxazine 4 (Exciton, West Chester, Ohio) was used for nerve and adipose co-staining and ratiometic imaging studies. Oxazine 4 was excited using a 620±30 nm bandpass filter, while fluorescence emission images were collected through a 700±37.5 nm bandpass filter. Approval for the use of animals in the study was obtained from the Institutional Animal Care and Use Committee (IACUC) at Oregon Health and Science University (OHSU). In vivo staining studies were carried out on male CD-1 mice using an optimized direct/topical administration protocol.^2 Staining was performed concurrently on no more than two nerve sites (sciatic nerve or brachial plexus) per mouse. Nile Red and all Nile Red derivatives were formulated in a previously published co-solvent formulation (10% DMSO, 5% Kolliphor, 63.75% serum and 21.25% PBS^14) at a final concentration of 100 μM. Each formulated fluorophore was incubated for 5 minutes on the nerve site (n=4 nerve sites/fluorophore), followed by 9 short flushes with PBS. The nerve site was then incubated with blank co-solvent not containing fluorophore for 5 minutes, followed again by 9 short flushes with PBS. In vivo co-staining was completed with (1) Nile Red and Oxazine 4 as well as (2) NR5 and Oxazine 4. For these studies, co-solvent formulated Oxazine 4 ([…]) was incubated on the nerve site for 5 minutes followed by 9 short flushes with PBS. The co-solvent formulated Nile Red or NR5 (100 μM) was then incubated on the nerve site for 5 minutes and also followed by 9 short flushes with PBS. Co-registered (1) Nile Red and Oxazine 4 or (2) NR5 and Oxazine 4 images were collected from n=4 nerve sites per groups (1) and (2). Ratiometric images were calculated and quantified using region of interest analysis on the white light images to identify the nerve, adipose and muscle tissue types. Due to the known cross talk of Oxazine 4 into the Nile Red channel,^2 the Oxazine 4 image was subtracted from the Nile Red or NR5 image resulting in an image of only adipose. The ratiometric images were then calculated as the Oxazine 4 image minus the corrected Nile Red or NR5 image divided by the corrected Nile Red or NR5 image. Receiver Operator Characteristic (ROC) curve analysis was performed to assess differences between the ratiometric images, where the area under the curve (AUC) was used as the metric to differentiate between groups (1) and (2) using custom written MatLab code.^28

[5] = U2OS, fixed and washed prior to imaging

| SMILES | Max Abs [1] | Max Em [1] | Stokes Shift [1] | QY (quantum yield) [1] | staining pattern in cells stained live, then fixed [2, 5] | adipose to muscle ratio [3] | adipose to nerve ratio [3] | fluorescence intensity in fixed cells ([2]; 5 min) | fluorescence intensity in live cells without washing ([2]; 5 min) | structures observed in live cells without washing ([2]; 5 min) | ROC AUC of nerve-to-muscle contrast, change [4] | exposure time in cells stained live, then fixed ([2]; U2OS, 5 min, fixed and washed prior to imaging) |
| --- | --- | --- | --- | --- | --- | --- | --- | --- | --- | --- | --- | --- |
| CCN(CC)c1ccc2nc3c4cc(C#Cc5cccc(N)c5)ccc4c(=O)cc-3oc2c1 [NR7, 2-((3-aminophenyl)ethynyl)-9-(diethylamino)-5H-benzo[a]phenoxazin-5-one] | 565 nm | 640 nm | 75 nm | 0.14 | more cytoplasmic structures were stained |  |  |  |  |  |  |  |
| CCN(CC)c1ccc2nc3c4ccc(-c5ccc(N)cc5)cc4c(=O)cc-3oc2c1 [NR1] | 555 nm | 635 nm | 80 nm | 0.08 |  | lower than Nile Red, adipose to muscle contrast was similar | increased contrast over control autofluorescence with similar adipose to nerve contrast | brighter in vitro fluorescence than NR12 | brighter than other Nile Red derivatives with higher quantum yields such as NR12 and NR6 | Prominent lipid droplet like structures |  |  |
| CC/N=c1/cc2oc3cc(NCC)c(C)cc3nc-2cc1C [Oxazine 4, reference compound] |  |  |  |  |  |  |  |  |  |  | improved values |  |
| CCN(CC)c1ccc2nc3c4cc(C#Cc5ccc(C=O)c(S(C)(=O)=O)c5)ccc4c(=O)cc-3oc2c1 [NR6, 4-((9-(diethylamino)-5-oxo-5H-benzo[a]phenoxazin-2-yl)ethynyl)-2-(methylsulfonyl)benzaldehyde] | 570 nm | 640 nm | 70 nm | 0.45 | more cytoplasmic structures were stained |  | increased contrast over control autofluorescence with similar adipose to nerve contrast |  |  |  |  | less than 10 sec |

Further lines, with some results ahead:

| Max Abs [1] | Max Em [1] | Stokes Shift [1] | QY (quantum yield) [1] | SMILES | staining pattern in cells stained live, then fixed [2, 5] | adipose to muscle ratio [3] | adipose to nerve ratio [3] | fluorescence intensity in fixed cells ([2]; 5 min) | fluorescence intensity in live cells without washing ([2]; 5 min) | structures observed in live cells without washing ([2]; 5 min) | ROC AUC of nerve-to-muscle contrast, change [4] | exposure time in cells stained live, then fixed ([2]; U2OS, 5 min, fixed and washed prior to imaging) |
| --- | --- | --- | --- | --- | --- | --- | --- | --- | --- | --- | --- | --- |
| 555 nm | 635 nm | 80 nm | 0.04 | CCN(CC)c1ccc2nc3c4cc(-c5ccc(N)cc5)ccc4c(=O)cc-3oc2c1 [NR10, 2-(4-aminophenyl)-9-(diethylamino)-5H-benzo[a]phenoxazin-5-one] | more cytoplasmic structures were stained | lower than Nile Red, adipose to muscle contrast was similar | increased contrast over control autofluorescence with similar adipose to nerve contrast |  |  |  |  |  |
| 565 nm | 640 nm | 75 nm | 0.48 | CCN(CC)c1ccc2nc3c4cc(C#Cc5cccc(C=O)c5)ccc4c(=O)cc-3oc2c1 [NR8, 3-((9-(diethylamino)-5-oxo-5H-benzo[a]phenoxazin-2-yl)ethynyl)benzaldehyde] |  |  |  | bright | brightest of the synthesized derivatives |  |  |  |
| 565 nm | 640 nm | 75 nm | 0.48 | CCN(CC)c1ccc2nc3c4cc(C#Cc5cc(C=O)ccc5OC)ccc4c(=O)cc-3oc2c1 [NR9, 3-((9-(diethylamino)-5-oxo-5H-benzo[a]phenoxazin-2-yl)ethynyl)-4-methoxybenzaldehyde] |  |  |  |  |  | Prominent lipid droplet like structures |  |  |
